The target in one data set is T1, human GLUT4^V85M (Homo sapiens, UniProt P14672, V85M).
T1 construct: HA (C); expressed in transfected cells; host or cells: S. cerevisiae EBY.VW4000 (hxt0 erg4Δ), plasmid pFL38Kan-GLUT4^V85M (TEF1 promoter, low-copy)
T1 sequence (P14672 1-509 V85M): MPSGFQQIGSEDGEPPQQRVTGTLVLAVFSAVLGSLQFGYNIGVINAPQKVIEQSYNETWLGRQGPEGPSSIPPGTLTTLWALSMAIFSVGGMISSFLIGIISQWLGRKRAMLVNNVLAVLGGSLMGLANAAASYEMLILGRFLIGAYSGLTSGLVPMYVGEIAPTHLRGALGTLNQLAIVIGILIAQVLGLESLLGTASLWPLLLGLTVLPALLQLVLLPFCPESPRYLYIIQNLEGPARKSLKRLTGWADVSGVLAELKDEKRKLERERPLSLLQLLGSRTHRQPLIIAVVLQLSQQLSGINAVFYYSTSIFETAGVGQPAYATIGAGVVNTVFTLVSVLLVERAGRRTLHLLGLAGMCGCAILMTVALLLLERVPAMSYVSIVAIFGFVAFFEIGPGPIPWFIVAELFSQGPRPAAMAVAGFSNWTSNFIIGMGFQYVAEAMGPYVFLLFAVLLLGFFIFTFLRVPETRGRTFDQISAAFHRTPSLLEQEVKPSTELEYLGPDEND
The experiment in a line: Glucose uptake by GLUT4^V85M expressed in hxt^0 erg4Δ (EBY.VW4000) yeast. In kind it is cell-based. The following applies: 2.5 mM glucose. From the text:
(§1) To assess whether WBC-A could inhibit glucose transport activity of the GLUT carriers, we expressed human GLUT1^V69M and GLUT4^V85M in a hxt^0 gal2Δ (RE700A) and hxt^0 erg4Δ (EBY.VW4000) strain, respectively. These strains are both deficient in glucose uptake due to absence of all active glucose transporters. For functional GLUT expression in yeast, specific mutations had to be introduced in both sequences, whereas for GLUT4, an additional ERG4 gene deletion was required^64,65,66.
(§2) Zero-trans uptake of radioactively labeled [U-^14C]glucose, [U-^14C]fructose or [U-^14C]galactose by S. cerevisiae cells was determined in accordance with previous studies^44,66. Cells were grown on different carbon sources depending on the experiment. For measuring glucose uptake activity in the tps1Δ and tps1Δ hxtA strains (FIG. 1b,c), cells were grown on YP medium containing 3% glycerol (measurement of 10s). Typically, for compound characterization and kinetic studies in wild type and tps1Δ strains, cells were (pre)grown on Complete Synthetic medium supplemented with 2% galactose (measurement of 10s). […] The loaded filter was transferred to a scintillation vial containing 3 mL liquid scintillation cocktail (Ultima-Flo M, Perkin Elmer) and counted using the Hidex 300 SL. […]

The subject of a further data set is wild type yeast cells. The experiment in a line: General toxicity: growth of wild type yeast cells. In kind it is cell-based, S. cerevisiae. The following applies: 100 μM. As for the experimental part: Maximal growth rates were determined after 2 days of growth in Complete Synthetic liquid medium.
Growth curves were made by measuring OD595 in a 96-well plate using the Multiskan™ FC Microplate Photometer (Thermo Fisher Scientific). Typically, for tps1Δ rescue experiments (FIG. 2b-e; FIG. 4a), cells were (pre)grown in Complete Synthetic medium containing 2% galactose.
Compounds were always added 10 min prior to glucose addition to ensure maximal interaction between the cells and compounds. Cells originating from the preculture were harvested, washed in medium without sugar, after which they were resuspended to an OD of 0.1 in 200 μL of the appropriate medium. At least three technical replicates were included per condition. OD595 was measured at 30° C. every 30 min with a 10-min shaking interval.

Data set [1] is described as follows: Warbicin toxicity and tolerability in mice. In kind it is in vivo, NMRI-nu mice. The protocol: Warbicin in vivo toxicity and tolerability was examined by subjecting NMRI-nu mice to daily intraperitoneal injection of either WBC-A, WBC-15C, WBC-4C or WBC-11C. Compounds were dosed at either 5 mg/kg, 10 mg/kg or 20 mg/kg over a period of 20 days. Three mice were used per condition. To evaluate toxicity, change in body weight was registered daily. As a humane endpoint, mice that lost more than 20% of their original body weight were prematurely sacrificed. An optimal dissolve strategy was developed to administer WBC compounds by intraperitoneal injection. Due to their considerable hydrophobicity, compounds were dissolved in a sterilized 1×PBS, 5% DMSO and 5% Tween-80 solution. For WBC-A, -15C and -4C, this gives an initial clear solution that gradually changes over time into a homogenous suspension which can still be administered in a reproducible way. For WBC-11C it immediately results in a homogenous suspension.

Another data set addresses T2, human GLUT1^V69M (Homo sapiens, UniProt P11166, V69M).
T2 construct: HA (C); expressed in transfected cells; host or cells: S. cerevisiae RE700A (hxt0 gal2Δ), plasmid pFL38Kan-GLUT1^V69M (TEF1 promoter, low-copy)
T2 sequence (P11166 1-492 V69M): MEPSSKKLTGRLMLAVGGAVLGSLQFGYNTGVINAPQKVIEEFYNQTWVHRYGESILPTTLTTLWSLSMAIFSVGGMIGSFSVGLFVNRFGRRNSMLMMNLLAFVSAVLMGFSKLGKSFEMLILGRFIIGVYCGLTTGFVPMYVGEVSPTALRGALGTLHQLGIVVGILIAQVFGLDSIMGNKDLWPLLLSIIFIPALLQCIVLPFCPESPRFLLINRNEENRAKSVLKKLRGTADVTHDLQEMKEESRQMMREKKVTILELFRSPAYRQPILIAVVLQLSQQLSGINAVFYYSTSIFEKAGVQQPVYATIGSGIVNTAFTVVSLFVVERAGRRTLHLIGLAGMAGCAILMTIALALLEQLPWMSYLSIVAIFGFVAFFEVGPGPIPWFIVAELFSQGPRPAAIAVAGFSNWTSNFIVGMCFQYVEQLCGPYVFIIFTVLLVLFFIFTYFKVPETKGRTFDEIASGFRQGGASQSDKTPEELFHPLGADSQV
In words: Glucose uptake by GLUT1^V69M expressed in hxt^0 gal2Δ (RE700A) yeast. In kind it is cell-based. The following applies: 2.5 mM glucose.
Excerpt: as §1, §2

Structures are written as SMILES. pIC50: −log10 of the molar value. “Also recorded” adds a separate entry of the source.

We go through one compound from patent publication US20240252508A1, “Novel glucose uptake inhibitors for use in the treatment of cancer” (NOVELYEAST BV, priority 2021, published 2024).

As to `Cc1nc(Sc2nnc3n2CCCCC3)c2c(-c3cccs3)csc2n1` [WBC-A], the pIC50 (as a rule, the negative decadic logarithm of the IC50, by convention in mol/L) was 4.68 against human GLUT4^V85M and 4.62 at human GLUT1^V69M (hxt^0 gal2Δ (RE700A)). Besides, the “Growth of wild type yeast cells on glucose (2%) and on 3% glycerol+2% ethanol” value in the data set on wild type yeast cells is “did not cause any growth inhibition at all”. In addition, in data set [1] (daily i.p. 5, 10, 20 mg/kg, 20 days), the “Other abnormalities at autopsy” value is on record as “No other abnormalities”. In addition, the “Loss in body weight over 20 days” value in data set [1] (daily i.p. 5, 10 and 20 mg/kg, nude mice) is “no significant loss in body weight; also recorded: No significant difference”. Moreover, in data set [1] (sera after 20 days, 5, 10, 20 mg/kg i.p.), the “AST/ALT ratio vs vehicle” value is reported as “No significant difference”. Besides, in data set [1] (sera post mortem after 20 days, 5, 10, 20 mg/kg i.p.), the “Blood glucose level vs vehicle” value was “No significant difference”. Further, the “Inhibition of glucose uptake by GLUT1^V69M at 25 μM” value on human GLUT1^V69M (25 μM, hxt^0 gal2Δ strain) is listed as “inhibited”.
